{"source": "paper PMC12027948", "about": "“Development of Peptidomimetic PROTACs as Potential Degraders of 3-Chymotrypsin-like Protease of SARS-CoV-2” (International Journal of Molecular Sciences, 2025)", "key": {"[1]": {"assay": "Cytotoxicity assay (Cell Counting Kit-8)", "settings": "human"}, "SARS-CoV-2 3CL^pro": {"target": "SARS-CoV-2 3CL^pro (Severe acute respiratory syndrome coronavirus 2, UniProt P0DTD1)", "assay": "cell-based", "settings": "HEK293 cells with stable 3CL^pro-flag expression, 72 h treatment, densitometry of Western blot; read-out: Dmax (maximum degradation in percentage)"}, "HEK293 cells": {"tested_on": "HEK293 cells", "assay": "Cytotoxicity assay (Cell Counting Kit-8)", "settings": "read-out: CC50 (50% cytotoxicity concentration); HEK293, 72 h, CCK8"}, "[2]": {"settings": "HEK293 cells, CC50 (50% cytotoxicity concentration), HEK293, 72 h, CCK8"}}, "data": [{"smiles": "CC(C)[C@H](NC(=O)[C@@H](NC(=O)OC(C)(C)C)C1CCCCC1)C(=O)OCCOCCNc1cccc2c1C(=O)N(C1CCC(=O)NC1=O)C2=O", "note": "(some centres unmarked) [Compound 15]", "values": [{"measurement": "CC50 at 3 days", "setting": "[1]; [2]", "value": 145, "unit": "µM"}, {"measurement": "Dmax", "setting": "SARS-CoV-2 3CL^pro", "value": 89.3, "unit": "%"}]}, {"smiles": "CC(C)C[C@H](NC(=O)OC(C)(C)C)C(=O)N[C@@H](Cc1ccccc1)C(=O)OCCOCCOCCNc1cccc2c1C(=O)N(C1CCC(=O)NC1=O)C2=O", "note": "(some centres unmarked) [Compound 16]", "values": [{"measurement": "CC50 at 3 days", "setting": "[1]; [2]", "value": "~25", "unit": "µM"}, {"measurement": "CC50", "setting": "HEK293 cells", "value": 25.8, "unit": "µM"}, {"measurement": "Dmax", "setting": "SARS-CoV-2 3CL^pro", "value": 75, "unit": "%"}]}, {"smiles": "CC(C)(C)OC(=O)N[C@H](C(=O)N[C@@H](Cc1ccccc1)C(=O)NCCCCNC(=O)CCC(=O)Nc1cccc2c1CN(C1CCC(=O)NC1=O)C2=O)C1CCCCC1", "note": "(some centres unmarked) [Compound 17]", "values": [{"measurement": "CC50 at 3 days", "setting": "[1]", "value": 219, "unit": "µM"}]}, {"smiles": "CC(C)(C)OC(=O)N[C@H](C(=O)N[C@@H](Cc1ccccc1)C(=O)NCCCCCCNC(=O)CCC(=O)Nc1cccc2c1CN(C1CCC(=O)NC1=O)C2=O)C1CCCCC1", "note": "(some centres unmarked) [Compound 18]", "values": [{"measurement": "CC50 at 3 days", "setting": "[1]", "value": 92.2, "unit": "µM"}]}, {"smiles": "CC(C)C[C@H](NC(=O)[C@H](Cc1ccccc1)NC(=O)OC(C)(C)C)C(=O)NCCCCCCNC(=O)CCC(=O)Nc1cccc2c1CN(C1CCC(=O)NC1=O)C2=O", "note": "(some centres unmarked) [Compound 19]", "values": [{"measurement": "CC50 at 3 days", "setting": "[1]", "value": 241, "unit": "µM"}]}]}
